# Experimental data from ChEMBL document CHEMBL5584216, “Expanded library of novel 2,3-pyrrolidinedione analogues exhibit anti-biofilm activity” (2024).
# Key:
# Format in all cases: functional
# Staphylococcus aureus [1] = assay: Antibiofilm activity against methicillin-resistant Staphylococcus aureus ATCC BAA-44 at 40 uM relative to control
# Staphylococcus aureus [2] = assay: Antibiofilm activity against methicillin-sensitive Staphylococcus aureus ATCC 25923 assessed as biofilm eradication at pH 9.0
# Staphylococcus aureus [3] = assay: Antibiofilm activity against methicillin-resistant Staphylococcus aureus ATCC BAA-44 at 5 uM relative to control
# Staphylococcus aureus [4] = assay: Antimicrobial activity against methicillin-sensitive Staphylococcus aureus ATCC 25923 assessed as reduction in microbial growth at pH 9.0
# Staphylococcus aureus [5] = assay: Antimicrobial activity against methicillin-resistant Staphylococcus aureus ATCC 33591 assessed as reduction in microbial growth
Structure (SMILES),Activity (Staphylococcus aureus [1]),MBEC (Staphylococcus aureus [2]),Activity (Staphylococcus aureus [3]),MIC (Staphylococcus aureus [4]),MIC (Staphylococcus aureus [5])
CCC1C(c2ccc(C(F)(F)F)cc2)=C(O)C(=O)N1c1ccccc1 (stereo not given),85%,128 µg/mL,5%,16 µg/mL,16 µg/mL
CCC1C(c2ccc(C(F)(F)F)cc2)=C(O)C(=O)N1Cc1ccc(OC)cc1OC (stereo not given),57%,>512 µg/mL,63%,> 256 µg/mL,> 128 µg/mL
CCCCCCN1C(=O)C(O)=C(c2ccc(C(F)(F)F)cc2)C1CC (stereo not given),85%,512 µg/mL,59%,32 µg/mL,16 µg/mL
CCC1C(c2ccc(C(F)(F)F)cc2)=C(O)C(=O)N1c1ccc(OC)c(OC)c1 (stereo not given),70%,>512 µg/mL,17%,64 µg/mL,> 128 µg/mL
CCC1C(c2ccc(C(F)(F)F)cc2)=C(O)C(=O)N1c1ccccn1 (stereo not given),31%,128 µg/mL,4%,32 µg/mL,> 128 µg/mL
CCC1C(c2ccc(C(F)(F)F)cc2)=C(O)C(=O)N1CCC(C)C (stereo not given),43%,>512 µg/mL,47%,64 µg/mL,> 128 µg/mL
CC(C)C1C(c2ccc(C(F)(F)F)cc2)=C(O)C(=O)N1c1ccccc1 (stereo not given),3%,512 µg/mL,-5%,16 µg/mL,> 128 µg/mL
CC1C(c2ccc(C(F)(F)F)cc2)=C(O)C(=O)N1c1ccccc1 (stereo not given),72%,256 µg/mL,-26%,16 µg/mL,32 µg/mL
O=C1C(O)=C(c2ccc(C(F)(F)F)cc2)CN1c1ccccc1,8%,512 µg/mL,26%,> 256 µg/mL,> 128 µg/mL
CCCCCCCN1C(=O)C(O)=C(c2ccc(C(F)(F)F)cc2)C1CC (stereo not given),59%,>512 µg/mL,64%,32 µg/mL,64 µg/mL
CCC1C(c2ccc(C(F)(F)F)cc2)=C(O)C(=O)N1c1ccc(Br)cc1 (stereo not given),72%,128 µg/mL,34%,32 µg/mL,32 µg/mL
CCC1C(c2ccc(C(F)(F)F)cc2)=C(O)C(=O)N1c1ccc(F)cc1 (stereo not given),81%,128 µg/mL,22%,16 µg/mL,16 µg/mL
CCCCCN1C(=O)C(O)=C(c2ccc(C(F)(F)F)cc2)C1CC (stereo not given),63%,256 µg/mL,58%,32 µg/mL,16 µg/mL
CCC1C(c2ccc(C(F)(F)F)cc2)=C(O)C(=O)N1Cc1cccs1 (stereo not given),79%,128 µg/mL,54%,32 µg/mL,> 128 µg/mL
CCC1C(c2ccc(C(F)(F)F)cc2)=C(O)C(=O)N1CCc1ccccc1 (stereo not given),45%,256 µg/mL,23%,64 µg/mL,> 128 µg/mL
